Reference: patent publication US9445590B2, “Fungicidal composition comprising a pyridylethylbenzamide derivative and a compound capable of inhibiting the transport of electrons of the respiratory chain in phytopathogenic fungal organisms” (BAYER INTELLECTUAL PROPERTY GMBH, priority 2004, dated 2016)

Legend:
Sphaerotheca fuliginea = assay: Efficacy against Sphaerotheca fuliginea on gherkin plants (preventive spray); format: in vivo; details: Podosphaera fuliginea, 504 h, grading 21 days after contamination
Experimental: (§1) The active ingredients tested are prepared by potter homogenisation in a mixture of acetone/tween/water. This suspension is then diluted with water to obtain the desired active material concentration.
Gherkin plants (Vert petit de Paris variety) in starter cups, sown on a 50/50 peat soil-pozzolana substrate and grown at 20° C./23° C., are treated at the 2-leaves stage by spraying with the aqueous suspension described above. Plants, used as controls, are treated with an aqueous solution not containing the active material.
After 24 hours, the plants are contaminated by spraying them with an aqueous suspension of Sphaerotheca fuliginea spores (100 000 spores per ml). The spores are collected from a contaminated plants. The contaminated gherkin plants are incubated at about 20° C./25° C. and at 60/70% relative humidity.
Grading (% of efficacy) is carried out 21 days after the contamination, in comparison with the control plants.

Alternaria brassicae [1] = assay: Efficacy against Alternaria brassicae (in vitro), growth on PDA medium; format: cell-based; details: Alternaria brassicae, 336 h, radial growth after 14 days
Experimental: The growth of Alternaria brassicae was followed on PDA medium containing the compounds alone or in mixtures. The PDA medium is prepared by mixing 39 grams of PDA (Merck) in 1 litter of demineralised water. The medium is sterilized by autoclave 15 minutes at 121° C. The compounds are dissolved in acetone and added to the medium before pouring it in Petri dishes. After medium drying, the fungus is inoculated on the medium and allowed to growth at 19° C. The percentage of efficacy is noted after 14 days of growth (measurement of the radial growth) of the fungus in comparison with a control. […]

Alternaria brassicae [2] = assay: Efficacy against Alternaria brassicae on radish plants (preventive spray); format: in vivo; details: Example 13, dose 4 ppm, grading 6 to 7 days after contamination
Experimental: (§2) The formulated compounds are diluted with water to obtain the desired active material concentration.
Radish plants (Pernot variety) in starter cups, sown on a 50/50 peat soil-pozzolana substrate and grown at 18-20° C., are treated at the cotyledon stage by spraying with the aqueous suspension described above.
(§3) Plants, used as controls, are treated with an aqueous solution not containing the active material.
After 24 hours, the plants are contaminated by spraying them with an aqueous suspension of Alternaria brassicae spores (40,000 spores per cm^3). The spores are collected from a 12-13-day-old culture.
The contaminated radish plants are incubated for 6-7 days at about 18° C., under a humid atmosphere.
Grading is carried out 6 to 7 days after the contamination, in comparison with the control plants.

[3] = tested on: Erysiphe graminis f. sp. tritici; assay: Efficacy against Erysiphe graminis f. sp. tritici on wheat plants (preventive spray); format: in vivo; details: Blumeria graminis, grading 7 to 14 days after contamination
Experimental: as §1
Wheat plants (Audace variety) in starter cups, sown on 50/50 peat soil-pozzolana substrate and grown at 12° C., are treated at the 1-leaf stage (10 cm tall) by spraying with the aqueous suspension described above.
as §3
After 24 hours, the plants are contaminated by dusting them with Erysiphe graminis f. sp. tritici spores, the dusting being carried out using diseased plants.
Grading is carried out 7 to 14 days after the contamination, in comparison with the control plants.
as §2
Wheat plants (Audace variety) in starter cups, sown on 50/50 peat soil-pozzolana substrate and grown at 12° C., are treated at the 1-leaf stage (10 cm tall) by spraying with the aqueous suspension described above. Plants, used as controls, are treated with an aqueous solution not containing the active material.

Botrytis cinerea = assay: Efficacy against Botrytis cinerea on gherkin plants (preventive spray); format: in vivo; details: Botrytis cinerea, grading 5 to 7 days after contamination
Experimental: as §1
Gherkin plants (Petit vert de Paris variety) in starter cups, sown on a 50/50 peat soil-pozzolana substrate and grown at 18-20° C., are treated at the cotyledon Z11 stage by spraying with the aqueous suspension described above. Plants, used as controls, are treated with an aqueous solution not containing the active material.
After 24 hours, the plants are contaminated by depositing drops of an aqueous suspension of Botrytis cinerea spores (150,000 spores per ml) on upper surface of the leaves. The spores are collected from a 15-day-old culture and are suspended in a nutrient solution composed of: • 20 g/L of gelatine • 50 g/L of cane sugar • 2 g/L of NH4NO3 • 1 g/L of KH2PO4
The contaminated gherkin plants are settled for 5/7 days in a climatic room at 15-11° C. (day/night) and at 80% relative humidity. Grading is carried out 5 to 7 days after contamination, in comparison with the control plants.
Gherkin plants (Petit vert de Paris variety) in starter cups, sown on a 50/50 peat soil-pozzolana substrate and grown at 18-20° C., are treated at the cotyledon Z 11 stage by spraying with the aqueous suspension described above. Plants, used as controls, are treated with an aqueous solution not containing the active material.
as §2

Pyrenophora teres = assay: Efficacy against Pyrenophora teres on barley plants (preventive spray); format: in vivo; details: 288 h, grading 12 days after contamination
Experimental: as §1
Barley plants (Express variety) in starter cups, sown on a 50/50 peat soil-pozzolana substrate and grown at 12° C., are treated at the 1-leaf stage (10 cm tall) by spraying with the aqueous suspension described above. Plants, used as controls, are treated with an aqueous solution not containing the active material.
After 24 hours, the plants are contaminated by spraying them with an aqueous suspension of Pyrenophora teres spores (12 000 spores per ml). The spores are collected from a 12-day-old culture. The contaminated barley plants are incubated for 24 hours at about 20° C. and at 100% relative humidity, and then for 12 days at 80% relative humidity.
Grading (% of efficacy) is carried out 12 days after the contamination, in comparison with the control plants.

O=C(NCCc1ncc(C(F)(F)F)cc1Cl)c1ccccc1C(F)(F)F [Compound 1, N-{2-[3-chloro-5-(trifluoromethyl)-2-pyridinyl]ethyl}-2-trifluoromethylbenzamide]
Emax at 4 ppm (Sphaerotheca fuliginea; Example 11, dose 4 ppm): 10%
Emax at 8 ppm (Sphaerotheca fuliginea; Example 11, dose 8 ppm): 15%
Emax at 15 ppm (Sphaerotheca fuliginea; Example 11, dose 15 ppm): 25%
Emax at 7.8 ppm (Sphaerotheca fuliginea; Example 12, dose 7.8 ppm): 10%
Emax at 15.6 ppm (Sphaerotheca fuliginea; Example 12, dose 15.6 ppm): 18%
Emax at 31.2 ppm (Sphaerotheca fuliginea; Example 12, dose 31.2 ppm): 86%
Emax at 0.025 ppm (Alternaria brassicae [1]; Example 2, dose 0.025 ppm): 34%
Emax at 0.05 ppm (Alternaria brassicae [1]; Example 2, dose 0.05 ppm): 45%
Emax at 0.1 ppm (Alternaria brassicae [1]; Example 2, dose 0.1 ppm): 53%
Emax at 0.25 ppm (Alternaria brassicae [1]; Example 2, dose 0.25 ppm): 76%
Emax at 0.5 ppm (Alternaria brassicae [1]; Example 2, dose 0.5 ppm): 90%
Emax at 4 ppm (Alternaria brassicae [2]): 40%
Emax at 125 ppm ([3]; Example 4, dose 125 ppm): 20%
Emax at 250 g/ha ([3]; Example 9, dose 250 g/ha, formulated compounds): 50%
Emax at 37 ppm (Botrytis cinerea; Example 5, dose 37 ppm): 0%
Emax at 111 ppm (Botrytis cinerea; Example 5, dose 111 ppm): 60%
Emax at 333 ppm (Botrytis cinerea; Example 5, dose 333 ppm): 90%
Emax at 37 ppm (Botrytis cinerea; Example 6, dose 37 ppm): 0%
Emax at 111 ppm (Botrytis cinerea; Example 6, dose 111 ppm): 60%
Emax at 333 ppm (Botrytis cinerea; Example 6, dose 333 ppm): 100%
Emax at 12 ppm (Botrytis cinerea; Example 7, dose 12 ppm): 0%
Emax at 37 ppm (Botrytis cinerea; Example 7, dose 37 ppm): 40%
Emax at 111 ppm (Botrytis cinerea; Example 7, dose 111 ppm): 92%
Emax at 37 ppm (Botrytis cinerea; Example 8, dose 37 ppm): 3%
Emax at 111 ppm (Botrytis cinerea; Example 8, dose 111 ppm): 58%
Emax at 333 ppm (Botrytis cinerea; Example 8, dose 333 ppm): 75%
Emax at 37 ppm (Botrytis cinerea; Example 10, dose 37 ppm): 72%
Emax at 31.2 ppm (Botrytis cinerea; Example 14, dose 31.2 ppm, formulated compounds): 20%
Emax at 62.5 ppm (Botrytis cinerea; Example 14, dose 62.5 ppm, formulated compounds): 40%
Emax at 4 g/ha (Pyrenophora teres; Example 1, dose 4 g/ha): 20%
Emax at 8 g/ha (Pyrenophora teres; Example 1, dose 8 g/ha): 50%
